{
  "source": "patent US20140187784A1",
  "about": "“RADIOACTIVE QUINOLINONE DERIVATIVE AND PHARMACEUTICAL DRUG COMPRISING THE SAME” (Nihon Medi-Physics Co., Ltd., priority 2012, published 2014)",
  "assay": "Pharmacokinetic and distribution experiment (radioactivity in blood and excised organs after tail vein injection)",
  "assay_type": "in vivo",
  "conditions": "ddy mice; for Adrenal gland/Blood ratio / Radioactivity Distribution, Blood / Radioactivity Distribution, Femur / Radioactivity Distribution, Heart / Radioactivity Distribution, Large intestine / Radioactivity Distribution, Lung / Radioactivity Distribution, Small intestine / Radioactivity Distribution, Spleen / Radioactivity Distribution, Stomach / Adrenal gland/Kidney ratio / Radioactivity Distribution, Adrenal gland / Radioactivity Distribution, Kidney / Radioactivity Distribution, Liver / Radioactivity Distribution, Pancreas / Adrenal gland/Liver ratio: tail vein injection; for Adrenal gland/Blood ratio / Radioactivity Distribution, Blood / Radioactivity Distribution, Femur / Radioactivity Distribution, Heart / Radioactivity Distribution, Large intestine / Radioactivity Distribution, Lung / Radioactivity Distribution, Small intestine / Radioactivity Distribution, Spleen / Radioactivity Distribution, Stomach: 14.8 kBq (4 μCi); for Adrenal gland/Kidney ratio / Radioactivity Distribution, Adrenal gland / Radioactivity Distribution, Kidney / Radioactivity Distribution, Liver / Radioactivity Distribution, Pancreas: 14.8 kBq",
  "procedure": "(§1) The HPLC fraction of [^125I]PAY15 obtained in Example 3 was concentrated and then diluted with saline. The resulting solution was used in administration. 100 μL of the solution (18.5 kBq (0.5 μCi)) was injected to the tail vein of each of five ddy mice (6 weeks old). Five minutes later, each mouse was decapitated, and blood was collected. Then, organs (adrenal gland, pancreas, heart, lung, stomach, small intestine, large intestine, liver, spleen, kidney, and thyroid gland) were excised. After measurement of their weights, the radioactivities of blood and each excised organ were measured. Also, the point in time when each mouse was decapitated was changed to 5, 15, 30, 60, and 120 minutes later to perform similar operation.\nThe HPLC fraction of [^125I]PAY21 obtained in Example 6 was concentrated and then diluted with saline. The resulting solution was used in administration to perform the same operation as in Evaluation 1.\nas §1, with “[^18F]PAY27 obtained” for “The HPLC fraction of [^125I]PAY15 obtained”, “Example 10” for “Example 3”, “was” for “was concentrated and then”, “solution (14.8” for “solution (18.5”, “kBq (4” for “kBq (0.5”, “and thigh bone)” for “and thyroid gland)”\nas §1, with “[^18F]PAY54 obtained” for “The HPLC fraction of [^125I]PAY15 obtained”, “Example 13” for “Example 3”, “was” for “was concentrated and then”, “solution (14.8” for “solution (18.5”, “kBq (4” for “kBq (0.5”, “and thigh bone)” for “and thyroid gland)”",
  "data": [
    {"smiles": "O=C1CCc2cc(-c3cncc(OCC[18F])c3)cc3c2N1CCC3", "note": "[[^18F]PAY27, 9-(5-(2-[^18F]fluoroethyloxy)pyridin-3-yl)-1,2,6,7-tetrahydro-5H-pyrido[3,2,1-ij]quinolin-3-one]", "values": [
      {"measurement": "radioactivity accumulation in the adrenal gland compared with blood and periadrenal tissues", "setting": "at 60 minutes after administration", "result": "high radioactivity accumulation"},
      {"measurement": "Adrenal gland/Blood ratio", "setting": "5 min", "result": "1.11 ± 0.17"},
      {"measurement": "Radioactivity Distribution, Blood", "setting": "5 min", "result": "4.0 ± 0.3", "unit": "% dose/g"},
      {"measurement": "Radioactivity Distribution, Femur", "setting": "5 min", "result": "1.8 ± 0.1", "unit": "% dose/g"},
      {"measurement": "Radioactivity Distribution, Heart", "setting": "5 min", "result": "3.9 ± 0.3", "unit": "% dose/g"},
      {"measurement": "Radioactivity Distribution, Large intestine", "setting": "5 min", "result": "2.5 ± 0.2", "unit": "% dose/g"},
      {"measurement": "Radioactivity Distribution, Lung", "setting": "5 min", "result": "3.7 ± 0.4", "unit": "% dose/g"},
      {"measurement": "Radioactivity Distribution, Small intestine", "setting": "5 min", "result": "5.0 ± 0.4", "unit": "% dose/g"},
      {"measurement": "Radioactivity Distribution, Spleen", "setting": "5 min", "result": "3.0 ± 0.2", "unit": "% dose/g"},
      {"measurement": "Radioactivity Distribution, Stomach", "setting": "5 min", "result": "5.1 ± 0.4", "unit": "% dose/g"},
      {"measurement": "Adrenal gland/Blood ratio", "setting": "15 min", "result": "0.83 ± 0.12"},
      {"measurement": "Radioactivity Distribution, Blood", "setting": "15 min", "result": "4.1 ± 0.2", "unit": "% dose/g"},
      {"measurement": "Radioactivity Distribution, Femur", "setting": "15 min", "result": "2.3 ± 0.1", "unit": "% dose/g"},
      {"measurement": "Radioactivity Distribution, Heart", "setting": "15 min", "result": "3.6 ± 0.2", "unit": "% dose/g"},
      {"measurement": "Radioactivity Distribution, Large intestine", "setting": "15 min", "result": "5.0 ± 0.4", "unit": "% dose/g"},
      {"measurement": "Radioactivity Distribution, Lung", "setting": "15 min", "result": "3.6 ± 0.1", "unit": "% dose/g"},
      {"measurement": "Radioactivity Distribution, Small intestine", "setting": "15 min", "result": "6.7 ± 0.6", "unit": "% dose/g"},
      {"measurement": "Radioactivity Distribution, Spleen", "setting": "15 min", "result": "2.8 ± 0.2", "unit": "% dose/g"},
      {"measurement": "Radioactivity Distribution, Stomach", "setting": "15 min", "result": "5.6 ± 1.1", "unit": "% dose/g"},
      {"measurement": "Adrenal gland/Blood ratio", "setting": "30 min", "result": "0.88 ± 0.18"},
      {"measurement": "Radioactivity Distribution, Blood", "setting": "30 min", "result": "3.6 ± 0.3", "unit": "% dose/g"},
      {"measurement": "Radioactivity Distribution, Femur", "setting": "30 min", "result": "2.4 ± 0.2", "unit": "% dose/g"},
      {"measurement": "Radioactivity Distribution, Heart", "setting": "30 min", "result": "3.2 ± 0.4", "unit": "% dose/g"},
      {"measurement": "Radioactivity Distribution, Large intestine", "setting": "30 min", "result": "6.1 ± 0.4", "unit": "% dose/g"},
      {"measurement": "Radioactivity Distribution, Lung", "setting": "30 min", "result": "2.7 ± 0.2", "unit": "% dose/g"},
      {"measurement": "Radioactivity Distribution, Small intestine", "setting": "30 min", "result": "5.9 ± 0.5", "unit": "% dose/g"},
      {"measurement": "Radioactivity Distribution, Spleen", "setting": "30 min", "result": "2.3 ± 0.1", "unit": "% dose/g"},
      {"measurement": "Radioactivity Distribution, Stomach", "setting": "30 min", "result": "5.5 ± 0.4", "unit": "% dose/g"},
      {"measurement": "Adrenal gland/Blood ratio", "setting": "60 min", "result": "1.43 ± 0.47"},
      {"measurement": "Radioactivity Distribution, Blood", "setting": "60 min", "result": "3.3 ± 0.1", "unit": "% dose/g"},
      {"measurement": "Radioactivity Distribution, Femur", "setting": "60 min", "result": "3.9 ± 0.2", "unit": "% dose/g"},
      {"measurement": "Radioactivity Distribution, Heart", "setting": "60 min", "result": "3.0 ± 0.2", "unit": "% dose/g"},
      {"measurement": "Radioactivity Distribution, Large intestine", "setting": "60 min", "result": "7.0 ± 0.6", "unit": "% dose/g"},
      {"measurement": "Radioactivity Distribution, Lung", "setting": "60 min", "result": "2.6 ± 0.2", "unit": "% dose/g"},
      {"measurement": "Radioactivity Distribution, Small intestine", "setting": "60 min", "result": "6.0 ± 0.7", "unit": "% dose/g"},
      {"measurement": "Radioactivity Distribution, Spleen", "setting": "60 min", "result": "2.2 ± 0.2", "unit": "% dose/g"},
      {"measurement": "Radioactivity Distribution, Stomach", "setting": "60 min", "result": "4.1 ± 0.9", "unit": "% dose/g"},
      {"measurement": "Adrenal gland/Blood ratio", "setting": "120 min", "result": "0.58 ± 0.44"},
      {"measurement": "Radioactivity Distribution, Blood", "setting": "120 min", "result": "2.8 ± 0.5", "unit": "% dose/g"},
      {"measurement": "Radioactivity Distribution, Femur", "setting": "120 min", "result": "6.4 ± 0.4", "unit": "% dose/g"},
      {"measurement": "Radioactivity Distribution, Heart", "setting": "120 min", "result": "2.4 ± 0.3", "unit": "% dose/g"},
      {"measurement": "Radioactivity Distribution, Large intestine", "setting": "120 min", "result": "9.1 ± 1.4", "unit": "% dose/g"},
      {"measurement": "Radioactivity Distribution, Lung", "setting": "120 min", "result": "2.1 ± 0.1", "unit": "% dose/g"},
      {"measurement": "Radioactivity Distribution, Small intestine", "setting": "120 min", "result": "3.1 ± 0.6", "unit": "% dose/g"},
      {"measurement": "Radioactivity Distribution, Spleen", "setting": "120 min", "result": "1.8 ± 0.2", "unit": "% dose/g"},
      {"measurement": "Radioactivity Distribution, Stomach", "setting": "120 min", "result": "3.9 ± 0.6", "unit": "% dose/g"},
      {"measurement": "Adrenal gland/Kidney ratio", "setting": "5 min", "result": "1.00 ± 0.19"},
      {"measurement": "Radioactivity Distribution, Adrenal gland", "setting": "5 min", "result": "4.5 ± 0.8", "unit": "% dose/g"},
      {"measurement": "Radioactivity Distribution, Kidney", "setting": "5 min", "result": "4.5 ± 0.3", "unit": "% dose/g"},
      {"measurement": "Radioactivity Distribution, Liver", "setting": "5 min", "result": "6.5 ± 1.0", "unit": "% dose/g"},
      {"measurement": "Radioactivity Distribution, Pancreas", "setting": "5 min", "result": "3.0 ± 0.4", "unit": "% dose/g"},
      {"measurement": "Adrenal gland/Kidney ratio", "setting": "15 min", "result": "0.99 ± 0.23"},
      {"measurement": "Radioactivity Distribution, Adrenal gland", "setting": "15 min", "result": "3.4 ± 0.5", "unit": "% dose/g"},
      {"measurement": "Radioactivity Distribution, Kidney", "setting": "15 min", "result": "3.5 ± 0.3", "unit": "% dose/g"},
      {"measurement": "Radioactivity Distribution, Liver", "setting": "15 min", "result": "5.1 ± 0.3", "unit": "% dose/g"},
      {"measurement": "Radioactivity Distribution, Pancreas", "setting": "15 min", "result": "2.5 ± 0.2", "unit": "% dose/g"},
      {"measurement": "Adrenal gland/Kidney ratio", "setting": "30 min", "result": "1.40 ± 0.28"},
      {"measurement": "Radioactivity Distribution, Adrenal gland", "setting": "30 min", "result": "3.2 ± 0.6", "unit": "% dose/g"},
      {"measurement": "Radioactivity Distribution, Kidney", "setting": "30 min", "result": "2.3 ± 0.2", "unit": "% dose/g"},
      {"measurement": "Radioactivity Distribution, Liver", "setting": "30 min", "result": "4.1 ± 0.5", "unit": "% dose/g"},
      {"measurement": "Radioactivity Distribution, Pancreas", "setting": "30 min", "result": "2.0 ± 0.1", "unit": "% dose/g"},
      {"measurement": "Adrenal gland/Kidney ratio", "setting": "60 min", "result": "1.88 ± 0.55"},
      {"measurement": "Radioactivity Distribution, Adrenal gland", "setting": "60 min", "result": "4.7 ± 1.7", "unit": "% dose/g"},
      {"measurement": "Radioactivity Distribution, Kidney", "setting": "60 min", "result": "2.5 ± 0.4", "unit": "% dose/g"},
      {"measurement": "Radioactivity Distribution, Liver", "setting": "60 min", "result": "3.7 ± 0.3", "unit": "% dose/g"},
      {"measurement": "Radioactivity Distribution, Pancreas", "setting": "60 min", "result": "2.0 ± 0.1", "unit": "% dose/g"},
      {"measurement": "Adrenal gland/Kidney ratio", "setting": "120 min", "result": "0.99 ± 0.77"},
      {"measurement": "Radioactivity Distribution, Adrenal gland", "setting": "120 min", "result": "2.2 ± 1.2", "unit": "% dose/g"},
      {"measurement": "Radioactivity Distribution, Kidney", "setting": "120 min", "result": "1.7 ± 0.1", "unit": "% dose/g"},
      {"measurement": "Radioactivity Distribution, Liver", "setting": "120 min", "result": "2.9 ± 0.5", "unit": "% dose/g"},
      {"measurement": "Radioactivity Distribution, Pancreas", "setting": "120 min", "result": "1.5 ± 0.2", "unit": "% dose/g"},
      {"measurement": "Adrenal gland/Liver ratio", "setting": "5 min", "result": "0.70 ± 0.16"},
      {"measurement": "Adrenal gland/Liver ratio", "setting": "15 min", "result": "0.67 ± 0.06"},
      {"measurement": "Adrenal gland/Liver ratio", "setting": "30 min", "result": "0.79 ± 0.20"},
      {"measurement": "Adrenal gland/Liver ratio", "setting": "60 min", "result": "1.26 ± 0.37"},
      {"measurement": "Adrenal gland/Liver ratio", "setting": "120 min", "result": "0.58 ± 0.46"}
    ]}
  ]
}
